Converted amounts (≈) assume the structure as drawn. Read-outs that look alike come from different tables or passages of the source.
How the values were obtained:
[1] = system: P. aeruginosa ATCC 27853; assay: Agar diffusion method, P. aeruginosa; assay type: cell-based, Pseudomonas aeruginosa; details: for zone of inhibition at 100 µg/disc: Pseudomonas aeruginosa, ATCC27853, 100 µg/well, read-out: Diameter of Zone Inhibition, P. aeruginosa
Description: (§1) Elyakov Pacific Institute of Bioorganic Chemistry, Far East Branch, Russian Academy of Sciences. Test substances were dissolved in DMSO at concentrations of 1.0, 0.1, and 0.01 mg/mL. All strains were grown on trypticase-soy agar TSA (BBL) at 37 °C. […] After incubation of the dishes at 37 °C for 24 h (for bacteria) and 48 h (for the fungus) at 28 °C, the diameters of the growth inhibition zones of pathogenic microorganisms (mm) were measured, including the diameter of the wells. Commercial antibacterial drugs (vancomicin and gentamicin) and antifungal (clotrimazol) drugs were used as positive controls.

[2] = system: mouse neuroblastoma (Neuro 2a); assay: Cytotoxicity, MTT assay, Neuro 2a cells; details: for EC50: 24 h, read-out: Cytotoxicity (EC50), Neuro 2a; for Selectivity Index (SI), Neuro-2a: SI = EC50 (Jb6 Cl 41-5a normal cells)/EC50 (tumor cells)
[3] = system: B. cereus ATCC 10702; assay: Agar diffusion method, B. cereus; assay type: cell-based, Bacillus cereus; set-up: key to Diameter of Zone Inhibition, B. cereus: Zones within 20–40 mm mean strong antibiotic activity; zones up to 20 mm—moderate; ≤10 mm—weak; +—insignificant; details: 100 µg/well, 24 h, incl. 7 mm well; for zone of inhibition at 100 µg/disc: Bacillus cereus, ATCC10702, 24 h, read-out: Diameter of Zone Inhibition, B. cereus
Description: as §1

[4] = system: human cervical cancer (HeLa); assay: Cytotoxicity, MTT assay, HeLa cells; details: for EC50: 24 h, read-out: Cytotoxicity (EC50), HeLa; for Selectivity Index (SI), HeLa: SI = EC50 (Jb6 Cl 41-5a normal cells)/EC50 (tumor cells)
[5] = Cytotoxicity, statements of the text over all tested cell lines; details: human, mouse
[6] = system: E. coli K-12; assay: Agar diffusion method, E. coli; assay type: cell-based, Escherichia coli; details: Escherichia coli, K12; 100 µg/well; read-out: Diameter of Zone Inhibition, E. coli
Description: as §1

[7] = Cytotoxicity, MTT assay, Jb6 Cl 41-5a normal epithelial cells; details: mouse, Jb6 Cl 41-5a normal epithelial cells
[8] = system: C. albicans KMM 453; assay: Agar diffusion method, C. albicans; assay type: cell-based; details: Candida albicans, KMM453, 48 h, 100 µg/well, 48 h at 28 °C; read-out: Diameter of Zone Inhibition, C. albicans
Description: as §1

[9] = system: S. aureus ATCC 21027; assay: Agar diffusion method, S. aureus; assay type: cell-based, Staphylococcus aureus; details: Staphylococcus aureus, ATCC21027, 24 h, 100 µg/well, 24 h, incl. 7 mm well; read-out: Diameter of Zone Inhibition, S. aureus
Description: as §1

[10] = system: mouse ascites Ehrlich carcinoma; assay: Cytotoxicity, nonspecific esterase (FDA) assay, ascites Ehrlich carcinoma cells; details: for EC50: 24 h, read-out: Cytotoxicity (EC50), Ascites Ehrlich Carcinoma; for Selectivity Index (SI), Ascitic Ehrlich Carcinoma: SI = EC50 (Jb6 Cl 41-5a normal cells)/EC50 (tumor cells)
[11] = Solubility in DMSO; assay type: physicochemical; details: did not allow measurement of cytotoxic activity
[12] = system: mouse normal epithelial cell line (JB6 Cl 41-5a); assay: Cytotoxicity, MTT assay, Jb6 Cl 41-5a normal epithelial cells; details: read-out: Cytotoxicity (EC50), Jb6 Cl 41-5a; MTT reagent, 24 h, non-cancer cells
[13] = system: S. aureus ATCC 21027; assay: Minimum inhibitory concentration, broth microdilution; assay type: cell-based, Staphylococcus aureus; details: for MIC: Staphylococcus aureus, ATCC21027, broth microdilution, 24 h, read-out: Minimum inhibitory concentration (MIC) against S. aureus
Description: Stocks of substances were prepared in DMSO at a concentration of 10 mM. All studied compounds were tested in concentrations from 1.5 μM to 100 μM using twofold dilution. All tested compounds were add to the wells of the plates in a volume of 20 μL diluted in PBS (DMSO concentration < 1%). The bacterial culture of S. aureus ATCC 21027 (Collection of Marine Microorganisms PIBOC FEB RAS) was cultured in a Petri dish at 37 °C for 24 h on solid medium with the following composition; pepton—5.0 g/L, K2HPO4—0.2 g/L, glucose—1.0 g/L, MgSO4—0.05 g/L, yeast extract—1 g/L, agar—16.0 g/L, and distilled water—1.0 L. The pH of the medium was adjusted to 7.2–7.4 with NaOH solution.
The antimicrobial activity of the compounds was determined by the minimum inhibitory concentration (MIC) according to the method adopted by the Clinical and Laboratory Standards Institute (CLSI). Methods for dilution antimicrobial susceptibility tests for bacteria that grow aerobically followed the approved standard—tenth edition. CLSI document M07-A10, PA: Clinical and Laboratory Standards Institute; 2015, with a slight modification of the medium. The assays were performed in 96-well microplates in appropriate broth (pepton—5.0 g/L, K2HPO4—0.2 g/L, glucose—1.0 g/L, MgSO4—0.05 g/L, yeast extract—1 g/L, casein hydrolyzate—2.5 g/L, distilled water—1L). […] The MIC value is defined as the lowest concentration of compounds resulting in the complete inhibition of bacterial growth by measuring the absorbance at 600 nm with a microplate reader (BioTek, Winooski, Vt, USA). All experiments were performed twice in triplicate. Gentamicin was used as a positive control in concentration 1 mg/mL; 1% DMSO solution in PBS as a negative. The selectivity index for S. aureus has been defined as the ratio of EC50 for normal cells and the MIC value for the bacterial culture (SI = EC50/MIC).

[14] = system: Gram-positive bacteria (S. aureus, B. cereus); assay: Agar diffusion method, Gram-positive strains; assay type: cell-based, Staphylococcus aureus, Bacillus cereus; details: Staphylococcus aureus; 100 µg/well; read-out: Antimicrobial activity / inhibition zone diameter, Gram-positive bacteria
Description: as §1

[15] = in vitro; details: mouse

## O=C1C2=C(S[C@@H]3O[C@H](CO)[C@@H](O)[C@H](O)[C@H]3O2)C(=O)c2c(O)cccc21 [Compound 19a, (2R,3S,4S,4aR,12aS)-3,4,10-Trihydroxy-2-hydroxymethyl-3,4,4a,12a-tetrahydro-2H-naphtho[2,3-b]pyrano[2,3-e][2,5]oxathiine-6,11-dione]
[1]
  zone of inhibition at 100 µg/disc: 0 mm
[2]; N2a
  EC50: 4.1 µM
[2]
  Selectivity Index (SI), Neuro-2a: 1.4
[3]
  zone of inhibition at 100 µg/disc: 0 mm
[4]; Homo sapiens, HeLa
  EC50: 3.7 µM
[4]
  Selectivity Index (SI), HeLa: 1.5
[5]
  EC50 at 24 h: 600 to 900 nM
[6]
  zone of inhibition at 100 µg/disc: 0 mm
[7]
  EC50 at 24 h: 5600 nM
[8]
  zone of inhibition at 100 µg/disc: 0 mm
[9]
  zone of inhibition at 100 µg/disc: 0 mm
[10]; Mus musculus, Ehrlich
  EC50: 600 nM
[10]
  Selectivity Index (SI), Ascitic Ehrlich Carcinoma: 9.3

## COc1ccc(OC)c2c1C(=O)C1=C(S[C@@H]3O[C@H](CO)[C@H](O)[C@H](O)[C@H]3O1)C2=O [Compound 17b, (2R,3R,4S,4aR,12aS)-3,4-Dihydroxy-2-hydroxymethyl-7,10-dimethoxy-3,4,4a,12a-tetrahydro-2H-naphtho[2,3-b]pyrano[2,3-e][2,5]oxathiine-6,11-dione]
[1]
  zone of inhibition at 100 µg/disc: 0 mm
[3]
  Diameter of Zone Inhibition, B. cereus: +
[11]
  Solubility in DMSO: poor solubility
[6]
  zone of inhibition at 100 µg/disc: 0 mm
[8]
  zone of inhibition at 100 µg/disc: 0 mm
other
  melting point: > 350 °C
[9]
  zone of inhibition at 100 µg/disc: 0 mm

## C=C(C)CCCC1(C)OC(=O)C23CCC4C(=CCC5C(C)(C)C(OC6OCC(OS(=O)(=O)O)C(O)C6OC6OC(C)C(OC7OC(CO)C(O)C(OC8OC(CO)C(O)C(OC)C8O)C7O)C(O)C6OC6OCC(O)C(O)C6O)CCC45C)C2(C)CC(=O)C13 (centres unmarked) [Cucumarioside A2-2, reference compound]
[2]; MTT reagent
  EC50: 37.5 µM
[4]; MTT reagent
  EC50: 42.4 µM
[12]
  EC50: 15.1 µM
[10]; FDA
  EC50: 18500 nM

## O=C1C2=C(S[C@@H]3OC[C@H](O)[C@H](O)[C@H]3O2)C(=O)c2c(O)cccc21 [Compound 19d, (3S,4S,4aR,12aS)-3,4,10-Trihydroxy-3,4,4a,12a-tetrahydro-2H-naphtho[2,3-b]pyrano[2,3-e][2,5]oxathiine-6,11-dione]
[1]
  zone of inhibition at 100 µg/disc: 0 mm
[2]; N2a
  EC50: 2.2 µM
[2]
  Selectivity Index (SI), Neuro-2a: 1
[3]
  zone of inhibition at 100 µg/disc: 25 ± 2 mm
[4]; Homo sapiens, HeLa
  EC50: 1.3 µM
[4]
  Selectivity Index (SI), HeLa: 1.8
[13]; SI = EC50 (normal Jb6 Cl 41-5a cells)/MIC
  Selectivity index (SI) against S. aureus: 0.4
[13]
  MIC: 6.25 µM (≈ 2.1 µg/mL)
[6]
  zone of inhibition at 100 µg/disc: 0 mm
[7]
  EC50 at 24 h: 2300 nM
[8]
  zone of inhibition at 100 µg/disc: 0 mm
other
  melting point: 319 to 321 °C
[9]
  zone of inhibition at 100 µg/disc: 20 ± 3 mm
[14]
  zone of inhibition at 100 µg/disc: 20 to 40 mm
[10]; Mus musculus, Ehrlich
  EC50: 1100 nM
[10]
  Selectivity Index (SI), Ascitic Ehrlich Carcinoma: 2.1

## O=C1C=CC(=O)c2c(O)cccc21 [Juglone, 5-hydroxy-1,4-naphthoquinone, reference compound]
[1]; 100 µg/well
  Diameter of Zone Inhibition, P. aeruginosa: 12 ± 2 mm
[1]
  zone of inhibition at 100 µg/disc: < 20 mm
[2]; N2a
  EC50: > 100 µM
[3]
  zone of inhibition at 100 µg/disc: 0 mm
[4]; Homo sapiens, HeLa
  EC50: > 100 µM
[5]
  EC50 at 24 h: > 100000 nM
[13]
  MIC: > 100 µM
[6]
  zone of inhibition at 100 µg/disc: 0 mm
[9]
  zone of inhibition at 100 µg/disc: 0 mm
[15]
  EC50: > 100 µM
[10]; Mus musculus, Ehrlich
  EC50: > 100000 nM

## O=C1C2=C(S[C@@H]3O[C@H](CO)[C@H](O)[C@H](O)[C@H]3O2)C(=O)c2c(O)cccc21 [Compound 19b, (2R,3R,4S,4aR,12aS)-3,4,10-Trihydroxy-2-hydroxymethyl-3,4,4a,12a-tetrahydro-2H-naphtho[2,3-b]pyrano-[2,3-e][2,5]oxathiine-6,11-dione]
[1]
  zone of inhibition at 100 µg/disc: 0 mm
[2]; N2a
  EC50: 2.3 µM
[2]
  Selectivity Index (SI), Neuro-2a: 0.4
[3]
  zone of inhibition at 100 µg/disc: 8 ± 2 mm
[4]; Homo sapiens, HeLa
  EC50: 2.7 µM
[4]
  Selectivity Index (SI), HeLa: 0.3
[5]
  EC50 at 24 h: 600 to 900 nM
[6]
  zone of inhibition at 100 µg/disc: 0 mm
[7]
  EC50 at 24 h: 900 nM
[8]
  zone of inhibition at 100 µg/disc: 0 mm
[9]
  zone of inhibition at 100 µg/disc: 0 mm
[14]
  zone of inhibition at 100 µg/disc: ≤ 10 mm
[10]; Mus musculus, Ehrlich
  EC50: 700 nM
[10]
  Selectivity Index (SI), Ascitic Ehrlich Carcinoma: 1.3

— paper PMC7463537, “Synthesis and Evaluation of Antimicrobial and Cytotoxic Activity of Oxathiine-Fused Quinone-Thioglucoside Conjugates of Substituted 1,4-Naphthoquinones” (Molecules, 2020)
